Laboratory results taken from patent publication US6916801B2, “7-Alkylidene-3-substituted-3-cephem-4-carboxylates as β-lactamase inhibitors” (Alamx, LLC, priority 2001, dated 2005).
Where two headings read alike, the source gives them in different places.

How the values were obtained:
[1] = target: TEM-1, a Class A penicillinase (Escherichia coli, UniProt P62593); test: beta-lactamase inhibition, relative IC50 analysis by nitrocefin hydrolysis (class A enzyme); type: biochemical; details: class A β-lactamase; 10 minute incubation of enzyme (2.56 nM) and inhibitor; nitrocefin substrate
Procedure: (§1) Representative compounds of formula (I) were evaluated as inhibitors of the Class C β-lactamase of Enterobacter cloacae P-99, a cephalosporinase, and TEM-1, a Class A penicillinase, by relative IC50 analysis. The IC50 value represents the concentration of inhibitor required to effect a 50% loss of activity of free enzyme. The IC50 value of each compound was determined as follows. Following a 10 minute incubation of a dilute solution of enzyme (2.56 nM) and inhibitor (<0.64 mM), a […] of this incubation mixture was then further diluted into 1 mL nitrocefin solution, and the rate of hydrolysis was measured during a 1 minute period by monitoring the absorbance of nitrocefin as a function of time.

[2] = target: Class C β-lactamase of Enterobacter cloacae P-99, a cephalosporinase (Enterobacter cloacae, UniProt P05364); test: biochemical
Procedure: as §1

[3] = class C β-lactamase, 10 minute incubation of enzyme (2.56 nM) and inhibitor, nitrocefin substrate, read-out: P99 (IC50, μm)

Sequence of Class C β-lactamase of Enterobacter cloacae P-99, a cephalosporinase (P05364 21-381): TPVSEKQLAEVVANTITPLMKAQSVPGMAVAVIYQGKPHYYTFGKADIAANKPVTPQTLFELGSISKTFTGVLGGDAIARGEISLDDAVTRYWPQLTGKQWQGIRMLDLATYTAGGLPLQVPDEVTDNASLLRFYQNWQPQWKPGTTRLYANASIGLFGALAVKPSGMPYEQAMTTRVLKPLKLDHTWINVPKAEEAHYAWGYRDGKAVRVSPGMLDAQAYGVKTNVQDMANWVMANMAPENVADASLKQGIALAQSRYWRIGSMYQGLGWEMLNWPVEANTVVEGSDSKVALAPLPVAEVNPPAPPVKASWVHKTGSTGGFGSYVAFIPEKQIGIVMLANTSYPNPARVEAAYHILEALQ
Sequence of TEM-1, a Class A penicillinase (P62593 24-286 limits assumed): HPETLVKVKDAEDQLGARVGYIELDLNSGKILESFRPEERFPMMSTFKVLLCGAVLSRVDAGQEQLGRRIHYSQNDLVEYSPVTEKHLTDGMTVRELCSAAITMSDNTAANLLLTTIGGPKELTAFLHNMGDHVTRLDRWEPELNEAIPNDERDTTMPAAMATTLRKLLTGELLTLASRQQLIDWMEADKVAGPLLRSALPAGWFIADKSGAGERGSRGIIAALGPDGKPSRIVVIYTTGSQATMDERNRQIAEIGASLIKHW

With `O=C(O)C1=C(Cl)CS(=O)(=O)C2C(=Cc3ccccn3)C(=O)N12` (centres unmarked) [Compound 7a, Sodium 3-chloro-1,1-dioxo-7-(2′-pyridylmethylidine)-3-cephem-4-carboxylate] the IC50 [1] was 1820 nM and the IC50 [2, 3] was 3 nM.

`O=C(O)C1=C(Br)CS(=O)(=O)C2C(=Cc3ccccn3)C(=O)N12` (centres unmarked) [Compound 7b, Sodium 3-bromo-1,1-dioxo-7-(2′-pyridylmethylidine)-3-cephem-4-carboxylate] gave an IC50 [1] of 791 nM and an IC50 [2] of 2.9 nM.

Work on `O=C(O)C1=C(I)CS(=O)(=O)C2C(=Cc3ccccn3)C(=O)N12` (centres unmarked) [Compound 7c, Sodium 1,1-dioxo-3-iodo-7-(2′-pyridylmethylidine)-3-cephem-4-carboxylate] yielded an IC50 [1] of 1280 nM and an IC50 [2] of 4.7 nM.

Work on `CSC1=C(C(=O)O)N2C(=O)C(=Cc3ccccn3)C2S(=O)(=O)C1` (centres unmarked) [Compound 9a, Sodium 1,1-dioxo-3-methylsulfanyl-7-(2′-pyridylmethylidine)-3-cephem-4-carboxylate] yielded an IC50 [1] of 1060 nM and an IC50 [2] of 59 nM.

In the case of `O=C(O)C1=C(Sc2ccccc2)CS(=O)(=O)C2C(=Cc3ccccn3)C(=O)N12` (centres unmarked) [Compound 9b, Sodium 1,1-dioxo-3-phenylsulfanyl-7-(2′-pyridylmethylidine)-3-cephem-4-carboxylate], the IC50 [1] is reported as 12 nM and the IC50 [2, 3] is reported as 21.7 nM.

In the case of `O=C(O)C1=C(c2cccs2)CS(=O)(=O)C2C(=Cc3ccccn3)C(=O)N12` (centres unmarked) [Compound 9c, Sodium 1,1-dioxo-7-(2′-pyridylmethylidine)-3-(thiophen-2′-yl)-3-cephem-4-carboxylate], the IC50 [1] is reported as 3540 nM and the IC50 [2] is reported as 43 nM.

Molecule `O=C(O)C1=C(c2ccccc2)CS(=O)(=O)C2C(=Cc3ccccn3)C(=O)N12` (centres unmarked) [Compound 9d, Sodium 1,1-dioxo-3-phenyl-7-(2′-pyridylmethylidine)-3-cephem-4-carboxylate] has an IC50 [1] of 9140 nM and an IC50 [2, 3] of 38 nM.

Molecule `CS(=O)(=O)C1=C(C(=O)O)N2C(=O)C(=Cc3ccccn3)C2S(=O)(=O)C1` (centres unmarked) [Compound 11a, Sodium 1,1-dioxo-3-methylsulfonyl-7-(2′-pyridylmethylidine)-3-cephem-4-carboxylate] has an IC50 [1] of 7.6 nM and an IC50 [2] of 90.7 nM.

For `O=C(O)C1=C(S(=O)(=O)c2ccccc2)CS(=O)(=O)C2C(=Cc3ccccn3)C(=O)N12` (centres unmarked) [Compound 11b, Sodium 1,1-dioxo-3-phenylsulfonyl-7-(2′-pyridylmethylidine)-3-cephem-4-carboxylate], the IC50 [1] was 9.4 nM and the IC50 [2] was 174 nM.

`O=C(O)C1=C(F)CS(=O)(=O)C2C(=Cc3ccccn3)C(=O)N12` (centres unmarked) [Compound 14a, Sodium 1,1-dioxo-3-fluoro-7-(2′-pyridylmethylidine)-3-cephem-4-carboxylate] was tested, and the IC50 [1] was 1840 nM and the IC50 [2, 3] was 11 nM.

For `O=C(O)C1=CCS(=O)(=O)C2C(=Cc3ccccn3)C(=O)N12` (centres unmarked) [Compound 14b, Sodium 1,1-dioxo-7-(2 ′-pyridylmethylidine)-3-cephem-4-carboxylate], the IC50 [1] was 18500 nM and the IC50 [2] was 116 nM.

Work on `O=C(C=CC1=C(C(=O)O)N2C(=O)C(=Cc3ccccn3)C2S(=O)(=O)C1)NC1CC1` (centres unmarked) [Compound 18a] yielded an IC50 [1] of 240 nM and an IC50 [2, 3] of 824 nM.

With `O=C(C=CC1=C(C(=O)O)N2C(=O)C(=Cc3ccccn3)C2S(=O)(=O)C1)NO` (centres unmarked) [Compound 18b, Sodium 3-(N-hydroxy-2′-carbamoylvinyl)-1,1-dioxo-7-(2″-pyridylmethylidine)-3-cephem-4-carboxylate] the IC50 [1] was 7690 nM and the IC50 [2] was 128 nM.

Molecule `NNC(=O)C=CC1=C(C(=O)O)N2C(=O)C(=Cc3ccccn3)C2S(=O)(=O)C1` (centres unmarked) [Compound 21a] has an IC50 [1] of 390 nM and an IC50 [2, 3] of 1100 nM.

`NCCCNC(=O)C=CC1=C(C(=O)O)N2C(=O)C(=Cc3ccccn3)C2S(=O)(=O)C1` (centres unmarked) [Compound 21b, Sodium 3-{[N-(3″-aminopropyl)-2′-carbamoyl]vinyl)}-1,1-dioxo-7-(2′″-pyridylmethylidine-3-cephem-4-carboxylate] was tested, and the IC50 [1] was 1590 nM and the IC50 [2, 3] was 4200 nM.

Molecule `CN1CCN(C(=O)C=CC2=C(C(=O)O)N3C(=O)C(=Cc4ccccn4)C3S(=O)(=O)C2)CC1` (centres unmarked) [Compound 21c, Sodium 3-[3 ′-(4″-methylpiperazin-1″-yl)-3′-oxopropenyl]-1,1-dioxo-7-(2′″-puridylmethylidine)-3-cephem-4-carboxylate] has an IC50 [1] of 53 nM and an IC50 [2] of 6340 nM.
